Data as given in PMC7979765, “trans-Translation inhibitors bind to a novel site on the ribosome and clear Neisseria gonorrhoeae in vivo” (Nature Communications, 2021).
Converted amounts (≈) assume the structure as drawn. “And” between values parts separate entries of the source, which are not always exact repeats. Equal values may be shown once.

System: Neisseria gonorrhoeae
Assay: MIC, microbroth dilution, G77L medium
Assay type: cell-based

Molecule `O=C(Nc1nnc(-c2ccc(F)cc2)o1)N1CCc2ccccc2C1` [MBX-4132] has an MIC (Neisseria gonorrhoeae, strain CDC-0186, replicates 1-3) of 0.169 µg/mL (≈ 0.499 µM), an MIC (Neisseria gonorrhoeae, strain CDC-0187, CIP, PEN, TET) of 0.34 µg/mL (≈ 1 µM) and an MIC (Neisseria gonorrhoeae, strain CDC-0187, replicates 1-3) of 0.338 µg/mL (≈ 0.999 µM). It also gave an MIC (Neisseria gonorrhoeae, strain CDC-0188, CIP, PEN) of 0.17 µg/mL (≈ 0.502 µM), an MIC (Neisseria gonorrhoeae, strain CDC-0188, replicates 1-3) of 0.169 µg/mL (≈ 0.499 µM) and an MIC (Neisseria gonorrhoeae, strain CDC-0189, CIP, PEN, TET) of 0.13 µg/mL (≈ 0.384 µM). For the same molecule, the MIC (Neisseria gonorrhoeae, strain CDC-0189, replicates 1-3) was 0.169 µg/mL (≈ 0.499 µM), the MIC (Neisseria gonorrhoeae, strain CDC-0190, CIP, PEN, TET) was 0.17 µg/mL (≈ 0.502 µM) and the MIC (Neisseria gonorrhoeae, strain CDC-0190, replicates 1-3) was 0.169 µg/mL (≈ 0.499 µM). It also gave an MIC (Neisseria gonorrhoeae, strain HO41, PEN, TET, CFM, CRO, LVX) of 0.17 µg/mL (≈ 0.502 µM), an MIC (Neisseria gonorrhoeae, strain HO41, replicates 1-3) of 0.169 µg/mL (≈ 0.499 µM) and an MIC (Neisseria gonorrhoeae, strain MMX 6744, broth dilution by Micromyx) of 0.27 µg/mL (≈ 0.798 µM). It also gave an MIC (Neisseria gonorrhoeae, strain MMX 6746, CIP, by Micromyx) of 0.14 µg/mL (≈ 0.414 µM), an MIC (Neisseria gonorrhoeae, strain MMX 6752, TET, by Micromyx) of 0.27 µg/mL (≈ 0.798 µM) and an MIC (Neisseria gonorrhoeae, strain MMX 6753, by Micromyx) of 0.14 µg/mL (≈ 0.414 µM). For the same molecule, the MIC (Neisseria gonorrhoeae, strain MMX 6757, by Micromyx) was 0.07 µg/mL (≈ 0.207 µM), the MIC (Neisseria gonorrhoeae, strain MMX 6758, by Micromyx) was 0.27 µg/mL (≈ 0.798 µM) and the MIC (Neisseria gonorrhoeae, strain MMX 6762, by Micromyx) was 0.27 µg/mL (≈ 0.798 µM). It also gave an MIC (Neisseria gonorrhoeae, strain MMX 6767, by Micromyx) of 0.14 µg/mL (≈ 0.414 µM), an MIC (Neisseria gonorrhoeae, strain MMX 6771, TET, by Micromyx) of 0.14 µg/mL (≈ 0.414 µM) and an MIC (Neisseria gonorrhoeae, strain MMX 6793, CIP, by Micromyx) of 0.14 µg/mL (≈ 0.414 µM). The MIC (Neisseria gonorrhoeae, strain MMX 6797, CIP, TET, by Micromyx) was 0.14 µg/mL (≈ 0.414 µM), the MIC (Neisseria gonorrhoeae, strain MMX 6803, CIP, by Micromyx) was 0.27 µg/mL (≈ 0.798 µM) and the MIC (Neisseria gonorrhoeae, strain MMX 6812, CIP, by Micromyx) was 0.27 µg/mL (≈ 0.798 µM). It also gave an MIC (Neisseria gonorrhoeae, strain MMX 6818, CIP, by Micromyx) of 0.27 µg/mL (≈ 0.798 µM), an MIC (Neisseria gonorrhoeae, strain MMX 6819, CIP, by Micromyx) of 0.14 µg/mL (≈ 0.414 µM) and an MIC (Neisseria gonorrhoeae, strain MMX 6879, by Micromyx) of 0.14 µg/mL (≈ 0.414 µM). The MIC (Neisseria gonorrhoeae, strain MMX 6921, CIP, by Micromyx) was 0.53 µg/mL (≈ 1.57 µM), the MIC (Neisseria gonorrhoeae, strain MMX 6922, CIP, by Micromyx) was 0.53 µg/mL (≈ 1.57 µM) and the MIC (Neisseria gonorrhoeae, strain MMX 6983, CIP, by Micromyx) was 0.53 µg/mL (≈ 1.57 µM). It also gave an MIC (Neisseria gonorrhoeae, strain MMX 6989, by Micromyx) of 0.14 µg/mL (≈ 0.414 µM), an MIC (Neisseria gonorrhoeae, strain MMX 6990, CIP, by Micromyx) of 0.14 µg/mL (≈ 0.414 µM) and an MIC (Neisseria gonorrhoeae, strain MMX 6992, by Micromyx) of 0.14 µg/mL (≈ 0.414 µM). For the same molecule, the MIC (Neisseria gonorrhoeae, strain MMX 6996, by Micromyx) was 0.27 µg/mL (≈ 0.798 µM), the MIC (Neisseria gonorrhoeae, strain MMX 6998, CIP, by Micromyx) was 0.53 µg/mL (≈ 1.57 µM) and the MIC (Neisseria gonorrhoeae, strain MMX 7002, CIP, by Micromyx) was 0.27 µg/mL (≈ 0.798 µM). The MIC (Neisseria gonorrhoeae, strain MMX 7005, by Micromyx) was 0.03 µg/mL (≈ 0.0887 µM), the MIC (Neisseria gonorrhoeae, strain WHO F) was 0.06 µg/mL (≈ 0.177 µM) and the MIC (Neisseria gonorrhoeae, strain WHO F, replicates 1-3) was 0.066 µg/mL (≈ 0.195 µM). The MIC (Neisseria gonorrhoeae, strain WHO G, PEN, TET) was 0.13 µg/mL (≈ 0.384 µM), the MIC (Neisseria gonorrhoeae, strain WHO G, replicates 1-3) was 0.132 µg/mL (≈ 0.39 µM) and the MIC (Neisseria gonorrhoeae, strain WHO K, CIP, PEN, TET) was 0.26 µg/mL (≈ 0.768 µM). For the same molecule, the MIC (Neisseria gonorrhoeae, strain WHO K, replicates 1-3) was 0.264 µg/mL (≈ 0.78 µM), the MIC (Neisseria gonorrhoeae, strain WHO L, CIP, PEN, TET) was 0.26 µg/mL (≈ 0.768 µM) and the MIC (Neisseria gonorrhoeae, strain WHO L, replicates 1-3) was 0.264 µg/mL (≈ 0.78 µM). It also gave an MIC (Neisseria gonorrhoeae, strain WHO M, CIP, PEN, TET) of 0.13 µg/mL (≈ 0.384 µM), an MIC (Neisseria gonorrhoeae, strain WHO M, replicates 1-3) of 0.132 µg/mL (≈ 0.39 µM) and an MIC (Neisseria gonorrhoeae, strain WHO N, CIP, PEN, TET) of 0.26 µg/mL (≈ 0.768 µM). It also gave an MIC (Neisseria gonorrhoeae, strain WHO N, replicates 1-3) of 0.264 µg/mL (≈ 0.78 µM), an MIC (Neisseria gonorrhoeae, strain WHO O, PEN, TET) of 0.13 µg/mL (≈ 0.384 µM) and an MIC (Neisseria gonorrhoeae, strain WHO O, replicates 1-3) of 0.132 µg/mL (≈ 0.39 µM). It also gave an MIC (Neisseria gonorrhoeae, strain WHO P, PEN, TET) of 0.33 µg/mL (≈ 0.975 µM), an MIC (Neisseria gonorrhoeae, strain WHO U, PEN, TET) of 0.13 µg/mL (≈ 0.384 µM) and an MIC (Neisseria gonorrhoeae, strain WHO U, replicates 1-3) of 0.132 µg/mL (≈ 0.39 µM). The MIC (Neisseria gonorrhoeae, strain WHO V, AZM, CIP, PEN, TET) was 0.26 µg/mL (≈ 0.768 µM), the MIC (Neisseria gonorrhoeae, strain WHO V, replicates 1-3) was 0.264 µg/mL (≈ 0.78 µM) and the MIC (Neisseria gonorrhoeae, strain WHO W, CIP, PEN, TET) was 0.13 µg/mL (≈ 0.384 µM). It also gave an MIC (Neisseria gonorrhoeae, strain WHO W, replicates 1-3) of 0.132 µg/mL (≈ 0.39 µM), an MIC (Neisseria gonorrhoeae, strain WHO X, CIP, PEN, TET) of 0.21 µg/mL (≈ 0.621 µM) and an MIC (Neisseria gonorrhoeae, strain WHO X, replicates 1-3) of 0.132 µg/mL (≈ 0.39 µM). It also gave an MIC (Neisseria gonorrhoeae, strain WHO Y, CIP, PEN, TET) of 0.21 µg/mL (≈ 0.621 µM), an MIC (Neisseria gonorrhoeae, strain WHO Y, replicates 1-3) of 0.264 µg/mL (≈ 0.78 µM) and an MIC (Neisseria gonorrhoeae, strain WHO Z, CIP, PEN, TET) of 0.26 µg/mL (≈ 0.768 µM). The MIC (Neisseria gonorrhoeae, strain WHO Z, replicates 1-3) was 0.264 µg/mL (≈ 0.78 µM), the MIC (strain ATCC 49226, replicates 1-3) was 0.169 µg/mL and 0.085 µg/mL and the MIC (strain ATCC 700719, replicates 1-3) was 0.169 µg/mL and 0.338 µg/mL. The MIC (strain ATCC 700825, replicates 1-3) was 0.042 µg/mL (≈ 0.124 µM), the MIC (strain BAA-1846, replicates 1-3) was 0.042 µg/mL (≈ 0.124 µM) and the MIC (strain CDC-0165, replicates 1-3) was 0.677 µg/mL (≈ 2 µM). The MIC (strain CDC-0166, replicates 1-3) was 0.169 µg/mL (≈ 0.499 µM), the MIC (strain CDC-0167, replicates 1-3) was 0.169 µg/mL and 0.085 µg/mL and the MIC (strain CDC-0169, replicates 1-3) was 0.169 µg/mL (≈ 0.499 µM). The MIC (strain CDC-0170, replicates 1-3) was 0.169 µg/mL (≈ 0.499 µM), the MIC (strain CDC-0171, replicates 1-3) was 0.169 µg/mL (≈ 0.499 µM) and the MIC (strain CDC-0172, replicates 1-3) was 0.169 µg/mL (≈ 0.499 µM). For the same molecule, the MIC (strain CDC-0173, replicates 1-3) was 0.169 µg/mL (≈ 0.499 µM), the MIC (strain CDC-0174, replicates 1-3) was 0.169 µg/mL (≈ 0.499 µM) and the MIC (strain CDC-0175, replicates 1-3) was 0.085 µg/mL (≈ 0.251 µM). It also gave an MIC (strain CDC-0176, replicates 1-3) of 0.338 µg/mL (≈ 0.999 µM), an MIC (strain CDC-0177, replicates 1-3) of 0.169 µg/mL (≈ 0.499 µM) and an MIC (strain CDC-0178, replicates 1-3) of 0.338 µg/mL (≈ 0.999 µM). The MIC (strain CDC-0179, replicates 1-3) was 0.085 µg/mL (≈ 0.251 µM), the MIC (strain CDC-0180, replicates 1-3) was 0.169 µg/mL (≈ 0.499 µM) and the MIC (strain CDC-0181, replicates 1-3) was 0.169 µg/mL (≈ 0.499 µM). It also gave an MIC (strain CDC-0182, replicates 1-3) of 0.169 µg/mL (≈ 0.499 µM), an MIC (strain CDC-0183, replicates 1-3) of 0.338 µg/mL (≈ 0.999 µM) and an MIC (strain CDC-0184, replicates 1-3) of 0.169 µg/mL (≈ 0.499 µM). The MIC (strain CDC-0185, replicates 1-3) was 0.338 µg/mL and 0.169 µg/mL, the MIC (strain CDC-0186, replicates 1-3) was 0.169 µg/mL (≈ 0.499 µM) and the MIC (strain CDC-0187, replicates 1-3) was 0.338 µg/mL (≈ 0.999 µM). The MIC (strain CDC-0188, replicates 1-3) was 0.169 µg/mL (≈ 0.499 µM), the MIC (strain CDC-0189, replicates 1-3) was 0.085 µg/mL and 0.169 µg/mL and the MIC (strain CDC-0190, replicates 1-3) was 0.169 µg/mL (≈ 0.499 µM). The MIC (strain HO41, replicates 1-3) was 0.169 µg/mL (≈ 0.499 µM), the MIC (strain WHO F, replicates 1-3) was 0.066 µg/mL (≈ 0.195 µM) and the MIC (strain WHO G, replicates 1-3) was 0.132 µg/mL (≈ 0.39 µM). It also gave an MIC (strain WHO K, replicates 1-3) of 0.264 µg/mL (≈ 0.78 µM), an MIC (strain WHO L, replicates 1-3) of 0.264 µg/mL (≈ 0.78 µM) and an MIC (strain WHO M, replicates 1-3) of 0.132 µg/mL (≈ 0.39 µM). The MIC (strain WHO N, replicates 1-3) was 0.264 µg/mL (≈ 0.78 µM), the MIC (strain WHO O, replicates 1-3) was 0.132 µg/mL (≈ 0.39 µM) and the MIC (strain WHO P, replicates 1-3) was 0.529 µg/ml and 0.264 µg/ml (2×). For the same molecule, the MIC (strain WHO U, replicates 1-3) was 0.132 µg/mL (≈ 0.39 µM), the MIC (strain WHO V, replicates 1-3) was 0.264 µg/mL (≈ 0.78 µM) and the MIC (strain WHO W, replicates 1-3) was 0.132 µg/mL (≈ 0.39 µM). For the same molecule, the MIC (strain WHO X, replicates 1-3) was 0.264 µg/mL (≈ 0.78 µM), the MIC (strain WHO Y, replicates 1-3) was 0.132 µg/mL and 0.264 µg/mL and the MIC (strain WHO Z, replicates 1-3) was 0.264 µg/mL (≈ 0.78 µM).
